“Also recorded” adds a separate entry of the source.
Assays:
B16-F10 cells = experiment: Cell viability assay (MTT); assay type: cell-based, murine; settings: 48 h
Protocol: Cell viability was evaluated using 3-(4,5-dimethylthiazol-2-yl)-2,5-diphenyltetrazolium bromide (MTT). After treatment of B16-F10 cells with each drug for 48 h, cells were washed with phosphate-buffered saline (PBS) and incubated for 2 h in the culture medium containing 1 mg∙mL^−1 MTT (Amresco, Solon, OH, USA). The medium was discarded by aspiration, the formazan dye deposited inside the cells was extracted with isopropanol, and absorbance was measured at 595 nm using a Spectrostar Nano microplate reader.

[1] = system: TYR, TYRP1, DCT and MITF protein in B16-F10 cells; experiment: Western blotting of melanogenic proteins; assay type: cell-based, murine; settings: 100 nM α-MSH, 24 h, β-actin loading control
Protocol: Western blotting was performed as previously described. Primary antibodies for TYR (#127217) was purchased from MyBioSource (San Diego, CA, USA). Primary antibodies for TYRP1 (#10443) and β-actin (#47778) were purchased from Santa Cruz Biotechnology (Santa Cruz, CA, USA). Primary antibodies for MITF (#20663) and DCT (#74073) were purchased from Abcam (Cambridge, UK). Anti-rabbit IgG (#2357) and anti-goat IgG (#2020) secondary antibodies were purchased from Santa Cruz Biotechnology. Anti-mouse IgG (#7076) secondary antibody was purchased from Cell Signaling Technology (Danvers, MA, USA). Each antibody was diluted 1 to 1000 in antibody dilution buffer containing 20 mM Tris-Cl (pH 7.5), 200 mM NaCl and 5% skim milk.
After B16-F10 cells were treated with drug and/or α-MSH, whole-cell lysates were prepared using a lysis buffer (pH 7.2) consisting of 10 mM Tris-Cl (pH 7.4), 120 mM NaCl, 25 mM KCl, 2 mM EGTA, 1 mM EDTA, 0.5% Triton X-100 and a protease inhibitor cocktail (Roche, Mannheim, Germany) for foe evaluation of TYR, TYRP1, and DCT. For MITF extraction, cells were extracted with RIPA buffer consisting of 25 mM Tris-HCl (pH 7.6), 150 mM NaCl, 1% NP-40, 1% sodium deoxycholate, 0.1% SDS and protease inhibitor cocktail. Proteins were denatured in the Laemmli sample buffer by heating at 95 °C for 5 min and separated by 7.5% SDS-PAGE gel. Proteins were transferred to a polyvinylidene difluoride membrane (Amersham Pharmacia, Little Chalfont, UK). The membrane was incubated with a primary antibody solution at 4 °C overnight, followed by incubation with a solution of a secondary antibody conjugated to horseradish peroxidase at room temperature for 1 h. The target protein bands were detected by a chemiluminescence method using a picoEPD Western Reagent kit (ELPIS-Biotech, Daejeon, Korea). The blots were analyzed using the NIH Image J program.

TYR = experiment: In vitro TYR catalytic activity, murine and human TYR given together (abstract); assay type: biochemical; settings: range over human and murine TYR preparations
Protocol: (§1) To examine the direct effect of a drug on the catalytic activity of TYR, in vitro experiments were undertaken. Lysate of B16F10 cells stimulated with α-MSH for 24 h was used as a murine TYR preparation. Human TYR preparation was the lysate of human embryonic kidney 293 cells constitutively expressing human TYR (HEK293-TYR). […] The TYR activity assay mixture (200 μL) consisted of 100 mM sodium phosphate buffer (pH 6.8), TYR preparation (40 μg protein), a drug at various concentrations, 1.0 mM L-tyrosine, and 42 μΜ L-DOPA. For enzyme kinetic study, the concentrations of L-tyrosine plus L-DOPA were varied while their relative ratio was kept the same as the standard assay condition. […] The reactions were also performed in the absence of a TYR preparation to correct for the effects of non-enzymatic reactions. Enzyme activity was calculated as follows: activity (% control) = (C−D)/(A−B) × 100, where A and B are the absorbance changes of the control group with and without enzyme, respectively, while C and D are the absorbance changes of the test group with and without enzyme, respectively.

human TYR = biological target: T1, human TYR (Homo sapiens, UniProt P14679); experiment: In vitro TYR catalytic activity assay, lysate of HEK293-TYR cells; assay type: biochemical
T1 construct: expressed in transfected cells; Triton X-100 lysate supernatant
T1 sequence (P14679 19-529): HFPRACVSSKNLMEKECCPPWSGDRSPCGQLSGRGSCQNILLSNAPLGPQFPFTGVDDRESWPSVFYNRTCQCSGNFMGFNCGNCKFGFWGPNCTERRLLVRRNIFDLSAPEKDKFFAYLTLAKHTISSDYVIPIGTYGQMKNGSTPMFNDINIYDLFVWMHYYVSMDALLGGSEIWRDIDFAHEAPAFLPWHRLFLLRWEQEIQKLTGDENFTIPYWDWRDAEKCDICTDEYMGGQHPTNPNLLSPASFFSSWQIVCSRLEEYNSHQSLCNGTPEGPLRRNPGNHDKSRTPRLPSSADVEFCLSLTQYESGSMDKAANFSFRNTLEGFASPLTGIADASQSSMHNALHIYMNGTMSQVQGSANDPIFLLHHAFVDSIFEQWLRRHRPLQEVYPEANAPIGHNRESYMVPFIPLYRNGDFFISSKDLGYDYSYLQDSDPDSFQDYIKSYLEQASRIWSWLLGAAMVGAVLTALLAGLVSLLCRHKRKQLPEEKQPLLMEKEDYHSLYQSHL
Protocol: as §1

[2] = system: B16-F10 murine melanoma cells; experiment: Screening assay for overall melanin synthesis (OD 400 nm) in α-MSH-stimulated cells; assay type: cell-based; settings: 100 nM α-MSH, 72 h
Protocol: For the screening assay, B16-F10 cells were plated in 96-well plates (3 × 10^3 cells per well) and cultured for 24 h. The cells were then treated with a test drug at 1.0 μM for 60 min, and subsequently stimulated with 0.1 μM α-MSH for 72 h. Overall melanin synthesis was estimated by measuring the absorbance of each well (cells plus medium, without cell lysis) at 400 nm using a Spectrostar Nano microplate reader (BMG LABTECH GmbH, Ortenberg, Germany).

IC50 (TYR): 1.1 to 1.5 µM
IC50 (human TYR; HEK293-TYR cell-free extract, L-tyrosine plus L-DOPA): 1.1 µM
human TYR inhibitory effect (human TYR; each drug at 1.0 μM, library screening): potent TYR inhibitory effects
Compound: O=C(NO)c1ccc(CC(=O)N(CCO)c2ccccc2)cc1 [K8, 4-((hydroxyamino)carbonyl)-N-(2-hydroxyethyl)-N-phenyl-benzeneacetamide]
relative viability (B16-F10 cells; drug 1.0 μM): without reducing cell viability
cytotoxicity (relative viability) (B16-F10 cells; drug at various concentrations): did not show toxic effects up to 10 μM
DCT protein level [1]: did not significantly attenuate the increase
MITF protein expression [1]: not significantly affected
TRP1 (TYRP1) protein level [1]: did not significantly attenuate the increase
TYR protein level [1]: did not significantly attenuate the increase
relative melanin synthesis (OD 400 nm) ([2]; drug 1.0 μM): markedly inhibited cellular melanin synthesis
melanin synthesis (OD 400) ([2]; drug at varied concentrations): attenuated by both drugs in a dose-dependent manner; also recorded: suppressed almost all melanin synthesis
